From patent US11040028B2, “Penicinotam derivative, preparation method and use thereof” (OCEAN UNIVERSITY OF CHINA, priority 2017, dated 2021)

Columns and labels:
Assay type in all cases: cell-based
[1] = system: human embryonic lung fibroblast IMR-90; assay: Anti-fibrosis activity test: inhibition of proliferation of human embryonic lung fibroblast IMR-90 (CCK-8)
Experimental: (§1) BHK-21 cells in exponential growth phase were selected. After the fusion growth reached 85-95%, normal passage method was utilized to digest and collect the cells, followed by cell counting and adjusting the cell density to 2×10^4 cells/mL. The cells were seeded into 96-well plates, 100 μL/well, and were incubated under the condition of 5% CO2 at 37° C.
(§2) The supernatant was removed after the cells had adhered to the wall for 24 hours. The culture solution containing the prepared compounds at different concentrations were added to the wells, 100 μL/well, each concentration in triplicate. The cells were subcultured for 48 hours after administration. Commercially available pirfenidone was employed as the positive control.
(§3) 10 μL of CCK-8 solution ( 1/10 of the volume of the culture solution) was added to each well 48 hours after the administration, and incubated for 2 hours. The absorbance (A) of each well was determined by a microplate reader at 450 nm wavelength. The inhibition rate against cell proliferation for each compound was calculated based on A, wherein inhibition rate against cell proliferation (inhibition ratio, IR)=(1−value of experimental group (Ai)/value of blank control group (Ao))×100% and the IC50 value of each compound was calculated by the data processing software.
(§4) Using the same protocol for the cell experiments, the inhibitory activity of the test compounds against the proliferation of human lung fibroblasts HFL1, human hepatic stellate cells LX-2, human fibrosarcoma cells HT-1080, human dermal fibroblasts CCC-ESF-1, human embryonic lung fibroblast IMR-90, cardiac fibroblast RAT-iCell-C002 was assayed.

[2] = system: human lung fibroblasts HFL1; assay: Anti-fibrosis activity test: inhibition of proliferation of human lung fibroblasts HFL1 (CCK-8); settings: Homo sapiens, HFL1, 48 h
Experimental: as §1, §2, §3, §4

[3] = system: human hepatic stellate cells LX-2; assay: Anti-fibrosis activity test: inhibition of proliferation of human hepatic stellate cells LX-2 (CCK-8); settings: Homo sapiens, 48 h
Experimental: as §1, §2, §3, §4

[4] = system: human fibrosarcoma cells HT-1080; assay: Anti-fibrosis activity test: inhibition of proliferation of human fibrosarcoma cells HT-1080 (CCK-8); settings: Homo sapiens, HT-1080, 48 h
Experimental: as §1, §2, §3, §4

BHK-21 cells = assay: Anti-fibrosis activity test: inhibition of BHK-21 cell proliferation (CCK-8); settings: Mesocricetus auratus, BHK-21, 48 h
Experimental: as §1, §2, §3

[5] = system: human dermal fibroblasts CCC-ESF-1; assay: Anti-fibrosis activity test: inhibition of proliferation of human dermal fibroblasts CCC-ESF-1 (CCK-8); settings: Fibroblast
Experimental: as §1, §2, §3, §4

[6] = system: cardiac fibroblast RAT-iCell-C002; assay: Anti-fibrosis activity test: inhibition of proliferation of cardiac fibroblast RAT-iCell-C002 (CCK-8); settings: Cardiac fibroblast, 48 h
Experimental: as §1, §2, §3, §4

[7] = human embryonic lung fibroblast IMR-90, CCK-8, 48 hours
[8] = human lung fibroblasts HFL1, CCK-8, 48 hours
[9] = human hepatic stellate cells LX-2, CCK-8, 48 hours
[10] = human fibrosarcoma cells HT-1080, CCK-8, 48 hours
[11] = CCK-8, 48 hours after administration
[12] = human dermal fibroblasts CCC-ESF-1, CCK-8, 48 hours
[13] = cardiac fibroblast RAT-iCell-C002, CCK-8, 48 hours
[14] = Homo sapiens, IMR-90 cells, 48 h, CCK-8
[15] = Homo sapiens, CCC-ESF-1 cells, 48 h, CCK-8

| IC50 [4, 10] [mM] | IC50 ([4]; HT-1080 cells, 48 h, CCK-8) [mM] | Compound | IC50 [1, 7] [mM] | IC50 [2, 8] [mM] | IC50 [3, 9] [mM] | IC50 (BHK-21 cells; [11]) [mM] | IC50 [5, 12] [mM] | IC50 [6, 13] [mM] | IC50 [1, 14] [mM] | IC50 ([2]; HFL1 cells, 48 h, CCK-8) [mM] | IC50 ([3]; LX-2, 48 h, LX-2 cells, CCK-8) [mM] | IC50 (BHK-21 cells; 48 h, CCK-8) [mM] | IC50 [5, 15] [mM] | IC50 ([6]; RAT-iCell-C002 cells, CCK-8) [mM] |
| --- | --- | --- | --- | --- | --- | --- | --- | --- | --- | --- | --- | --- | --- | --- |
| 5 to 20 |  | O=C1c2c(nc3cc(N4CCNCC4)c(F)cc3c2OCc2ccc(-c3ccccc3)cc2)-c2cccn21 [Compound 637b, 9-([1,1′-biphenyl]-4-ylmethoxy)-7-fluoro-6-(piperazin-1-yl)-10H-pyrrolizino[1,2-b]quinolin-10-one] | 0.05 to 5 | 0.05 to 5 | 0.05 to 5 | 0.05 to 5 | 0.05 to 5 | 0.05 to 5 |  |  |  |  |  |  |
| 0.05 to 5 |  | O=C1c2c(n(Cc3ccc(F)cc3)c3cc(N4CCNCC4)cc(F)c3c2=O)-c2cccn21 [Compound 646a, 8-Fluoro-4-(4-fluorobenzyl)-6-(piperazin-1-yl)-9H-pyrrolizino[1,2-b]quinoline-9,10(4H)-dione] | 0.05 to 5 | 0.05 to 5 | 0.05 to 5 | 0.05 to 5 | 0.05 to 5 | 0.05 to 5 |  |  |  |  |  |  |
| 0.05 to 5 |  | O=C1c2c(n(Cc3ccc(F)cc3)c3cc(N4CCNCC4)c(F)cc3c2=O)-c2cccn21 [Compound 634a, 7-Fluoro-4-(4-fluorobenzyl)-6-(piperazin-1-yl)-9H-pyrrolizino[1,2-b]quinoline-9,10(4H)-dione] | 0.05 to 5 | 0.05 to 5 | 0.05 to 5 | 0.05 to 5 | 0.05 to 5 | 0.05 to 5 |  |  |  |  |  |  |
| 0.05 to 5 |  | O=C1c2c(nc3cc(N4CCNCC4)cc(F)c3c2OCc2ccc(F)cc2)-c2cccn21 [Compound 646b, 8-fluoro-9-((4-fluorobenzyl)oxy)-6-(piperazin-1-yl)-10H-pyrrolizino[1,2-b]quinolin-10-one] | 0.05 to 5 | 0.05 to 5 | 0.05 to 5 | 0.05 to 5 | 0.05 to 5 | 0.05 to 5 |  |  |  |  |  |  |
| 0.05 to 5 |  | N#Cc1ccccc1-c1ccc(COc2c3c(nc4cc(N5CCNCC5)c(F)cc24)-c2cccn2C3=O)cc1 [Compound 638b, 4′-(((7-fluoro-10-oxo-6-(piperazin-1-yl)-10H-pyrrolizino[1,2-b]quinolin-9-yl)oxy)methyl)-[1,1′-biphenyl]-2-carbonitrile] | 0.05 to 5 | 0.05 to 5 | 0.05 to 5 | 0.05 to 5 | 0.05 to 5 | 0.05 to 5 |  |  |  |  |  |  |
| 0.05 to 5 |  | N#Cc1ccc(COc2c3c(nc4cc(N5CCNCC5)c(C#N)cc24)-c2cccn2C3=O)cc1 [Compound 641b, 9-((4-cyanobenzyl)oxy)-10-oxo-6-(piperazin-1-yl)-10H-pyrrolizino[1,2-b]quinoline-7-carbonitrile] | 0.05 to 5 | 0.05 to 5 | 0.05 to 5 | 0.05 to 5 | 0.05 to 5 | 0.05 to 5 |  |  |  |  |  |  |

The remaining lines, values behind:

| Compound | IC50 [4, 10] [mM] | IC50 ([4]; HT-1080 cells, 48 h, CCK-8) [mM] | IC50 [1, 7] [mM] | IC50 [2, 8] [mM] | IC50 [3, 9] [mM] | IC50 (BHK-21 cells; [11]) [mM] | IC50 [5, 12] [mM] | IC50 [6, 13] [mM] | IC50 [1, 14] [mM] | IC50 ([2]; HFL1 cells, 48 h, CCK-8) [mM] | IC50 ([3]; LX-2, 48 h, LX-2 cells, CCK-8) [mM] | IC50 (BHK-21 cells; 48 h, CCK-8) [mM] | IC50 [5, 15] [mM] | IC50 ([6]; RAT-iCell-C002 cells, CCK-8) [mM] |
| --- | --- | --- | --- | --- | --- | --- | --- | --- | --- | --- | --- | --- | --- | --- |
| O=C1c2c(n(Cc3ccc(Cl)cc3)c3cc(N4CCNCC4)c(F)cc3c2=O)-c2cccn21 [Compound 632a, 4-(4-Chlorobenzyl)-7-fluoro-6-(piperazin-1-yl)-9H-pyrrolizino[1,2-b]quinoline-9,10(4H)-dione] | 0.05 to 5 |  | 0.05 to 5 | 0.05 to 5 | 0.05 to 5 | 0.05 to 5 | < 0.05 | 0.05 to 5 |  |  |  |  |  |  |
| O=C1c2c(nc3cc(N4CCNCC4)c(F)cc3c2OCc2cc(C(F)(F)F)cc(C(F)(F)F)c2)-c2cccn21 [Compound 639b, 9-((3,5-bis(trifluoromethyl)benzyl)oxy)-7-fluoro-6-(piperazin-1-yl)-10H-pyrrolizino[1,2-b]quinolin-10-one] | 0.05 to 5 |  | 0.05 to 5 | 0.05 to 5 | 0.05 to 5 | 0.05 to 5 | 0.05 to 5 | 0.05 to 5 |  |  |  |  |  |  |
| O=C1c2c(n(Cc3ccc(Br)cc3)c3cc(N4CCNCC4)c(F)cc3c2=O)-c2cccn21 [Compound 633a, 4-(4-Bromobenzyl)-7-fluoro-6-(piperazin-1-yl)-9H-pyrrolizino[1,2-b]quinoline-9,10(4H)-dione] | 0.05 to 5 |  | 0.05 to 5 | 0.05 to 5 | 0.05 to 5 | < 0.05 | 0.05 to 5 | 0.05 to 5 |  |  |  |  |  |  |
| O=C1c2c(nc3cc(N4CCNCC4)c(F)cc3c2O)-c2cccn21 [Compound 346b, 7-fluoro-9-hydroxy-6-(piperazin-1-yl)-10H-pyrrolizino[1,2-b]quinolin-10-one] | 0.05 to 5 |  | 0.05 to 5 | 0.05 to 5 | 0.05 to 5 | 0.05 to 5 | 0.05 to 5 | 0.05 to 5 |  |  |  |  |  |  |
| O=C1c2c([nH]c3cc(N4CCNCC4)c(F)cc3c2=O)-c2cccn21 [Compound 346a, 7-Fluoro-6-(piperazin-1-yl)-9H-pyrrolizino[1,2-b]quinoline-9,10(4H)-dione] | 0.05 to 5 |  | 0.05 to 5 | 0.05 to 5 | 0.05 to 5 | 0.05 to 5 | 0.05 to 5 | 0.05 to 5 |  |  |  |  |  |  |
| Cc1cc2n(c1)C(=O)c1c-2[nH]c2ccccc2c1=O [Compound 801a, 2-Methyl-9H-pyrrolizino[1,2-b]quinoline-9,10(4H)-dione] |  | 0.05 to 5 |  |  |  |  |  |  | 0.05 to 5 | 0.05 to 5 | 0.05 to 5 | < 0.05 | 0.05 to 5 | 0.05 to 5 |
| O=C1c2c(n(Cc3ccc(-c4ccccc4)cc3)c3cc(N4CCNCC4)c(F)cc3c2=O)-c2cccn21 [Compound 637a, 4-([1,1′-Biphenyl]-4-ylmethyl)-7-fluoro-6-(piperazin-1-yl)-9H-pyrrolizino[1,2-b]quinoline-9,10(4H)-dione] | 5 to 20 |  | 0.05 to 5 | 0.05 to 5 | 0.05 to 5 | < 0.05 | 0.05 to 5 | 0.05 to 5 |  |  |  |  |  |  |
| CC(C)CCOc1c2c(nc3cc(N4CCNCC4)c(F)cc13)-c1cccn1C2=O [Compound 347b, 7-fluoro-9-(isopentyloxy)-6-(piperazin-1-yl)-10H-pyrrolizino[1,2-b]quinolin-10-one] | 0.05 to 5 |  | 0.05 to 5 | 0.05 to 5 | 0.05 to 5 | 0.05 to 5 | 0.05 to 5 | 0.05 to 5 |  |  |  |  |  |  |
| O=C1c2c(nc3cccc(Cl)c3c2OCc2ccccc2Cl)-c2cccn21 [Compound 645b, 8-chloro-9-((2-chlorobenzyl)oxy)-10H-pyrrolizino[1,2-b]quinolin-10-one] | 0.05 to 5 |  | 0.05 to 5 | 0.05 to 5 | 0.05 to 5 | 0.05 to 5 | 0.05 to 5 | 0.05 to 5 |  |  |  |  |  |  |
| O=C1c2c(n(Cc3ccc(C(F)(F)F)cc3)c3cc(N4CCNCC4)c(F)cc3c2=O)-c2cccn21 [Compound 636a, 7-Fluoro-6-(piperazin-1-yl)-4-(4-(trifluoromethyl)benzyl)-9H-pyrrolizino[1,2-b]quinoline-9,10(4H)-dione] | 0.05 to 5 |  | 0.05 to 5 | 0.05 to 5 | 0.05 to 5 | 0.05 to 5 | < 0.05 | 0.05 to 5 |  |  |  |  |  |  |
| N#Cc1ccccc1-c1ccc(COc2c3c(nc4cc(N5CCNCC5)c(C#N)cc24)-c2cccn2C3=O)cc1 [Compound 644b, 9-((2′-cyano-[1,1′-biphenyl]-4-yl)methoxy)-10-oxo-6-(piperazin-1-yl)-10H-pyrrolizino[1,2-b]quinoline-7-carbonitrile] | 0.05 to 5 |  | 0.05 to 5 | 0.05 to 5 | 0.05 to 5 | 0.05 to 5 | 0.05 to 5 | 0.05 to 5 |  |  |  |  |  |  |
| Cc1ccc2n1C(=O)c1c-2[nH]c2ccccc2c1=O [Compound 800a, 1-Methyl-9H-pyrrolizino[1,2-b]quinoline-9,10(4H)-dione] |  | 0.05 to 5 |  |  |  |  |  |  | 0.05 to 5 | 0.05 to 5 | 0.05 to 5 | 0.05 to 5 | 0.05 to 5 | 0.05 to 5 |
| CC(C)CCOc1c2c(nc3ccc(F)cc13)-c1cccn1C2=O [Compound 105b, 7-fluoro-9-(isopentyloxy)-10H-pyrrolizino[1,2-b]quinolin-10-one] | 0.05 to 5 |  | 0.05 to 5 | 0.05 to 5 | 0.05 to 5 | 0.05 to 5 | 0.05 to 5 | 0.05 to 5 |  |  |  |  |  |  |
